pIC50: −log10 of the molar value. ≈ marks a conversion by molar mass, not a printed value. Bounds are passed on as bounds.

System in one data set: not listed separately
The experiment in a line: Aqueous solubility at pH 7.4. The class given is physicochemical.
`CCN1CCN(CCCOc2cc3ncc(C#N)c(Nc4ccc(Sc5nc(C)c(C)n5CC)c(Cl)c4)c3cc2OC)CC1`: the solubility (usually the dissolved amount per volume that the medium holds) stood at 2000 µg/mL (≈ 3.15 mM).

A further data set deals with Insulin-like growth factor 1 receptor (Homo sapiens, UniProt P08069). In words: Inhibition of GST-IGF1R.
Insulin-like growth factor 1 receptor, sequence (P08069 31-736 limits assumed): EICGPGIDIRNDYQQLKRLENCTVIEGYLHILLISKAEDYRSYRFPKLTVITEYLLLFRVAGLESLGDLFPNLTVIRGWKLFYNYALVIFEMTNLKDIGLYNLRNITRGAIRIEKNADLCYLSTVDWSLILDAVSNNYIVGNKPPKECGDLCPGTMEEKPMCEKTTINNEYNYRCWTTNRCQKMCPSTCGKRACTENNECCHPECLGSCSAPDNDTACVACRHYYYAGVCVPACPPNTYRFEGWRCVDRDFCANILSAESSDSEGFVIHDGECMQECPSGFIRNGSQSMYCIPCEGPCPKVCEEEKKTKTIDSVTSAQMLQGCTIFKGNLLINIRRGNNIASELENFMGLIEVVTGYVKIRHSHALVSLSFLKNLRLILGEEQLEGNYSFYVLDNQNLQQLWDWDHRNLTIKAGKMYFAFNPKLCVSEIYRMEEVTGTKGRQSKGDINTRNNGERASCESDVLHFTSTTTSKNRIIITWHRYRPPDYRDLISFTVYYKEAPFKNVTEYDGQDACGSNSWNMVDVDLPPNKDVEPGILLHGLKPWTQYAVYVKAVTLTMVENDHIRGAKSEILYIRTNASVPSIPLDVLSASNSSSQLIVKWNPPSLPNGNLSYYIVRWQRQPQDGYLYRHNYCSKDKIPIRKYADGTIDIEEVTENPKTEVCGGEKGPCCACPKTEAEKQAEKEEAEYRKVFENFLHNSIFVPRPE
Insulin-like growth factor 1 receptor, sequence (P08069 741-1367 limits assumed): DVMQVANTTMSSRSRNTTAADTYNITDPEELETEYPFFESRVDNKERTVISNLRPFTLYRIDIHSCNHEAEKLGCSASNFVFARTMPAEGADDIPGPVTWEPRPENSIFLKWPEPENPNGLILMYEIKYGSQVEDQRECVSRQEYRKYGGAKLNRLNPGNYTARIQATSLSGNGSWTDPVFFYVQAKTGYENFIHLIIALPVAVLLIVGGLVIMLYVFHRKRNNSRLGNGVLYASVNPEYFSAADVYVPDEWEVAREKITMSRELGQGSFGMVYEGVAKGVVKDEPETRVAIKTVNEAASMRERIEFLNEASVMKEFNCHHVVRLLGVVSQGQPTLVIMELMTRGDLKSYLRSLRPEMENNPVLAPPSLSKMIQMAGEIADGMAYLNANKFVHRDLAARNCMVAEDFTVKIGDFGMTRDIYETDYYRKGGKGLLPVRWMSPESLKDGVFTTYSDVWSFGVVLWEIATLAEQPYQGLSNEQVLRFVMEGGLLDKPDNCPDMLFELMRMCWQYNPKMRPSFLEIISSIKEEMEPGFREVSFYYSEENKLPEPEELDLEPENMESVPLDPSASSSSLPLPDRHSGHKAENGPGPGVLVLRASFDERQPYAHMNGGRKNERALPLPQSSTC
For the compound `CCn1c(Sc2ccc(Nc3c(C#N)cnc4cc(OCCCNS(C)(=O)=O)c(OC)cc34)cc2Cl)nc(C)c1C`, the pIC50 (commonly the negative decadic logarithm of the IC50, by convention in mol/L) was 7.51.
In turn, `COc1cc2c(Nc3ccc(Sc4nccn4C)cc3)c(C#N)cnc2cc1OCCCN1CCOCC1` showed a pIC50 of 6.00. Against the preceding compound, the pIC50 is 1.51 log units lower.
The same measure, in the same setting: with `COc1cc2c(Nc3ccc(Sc4nccn4C)c(Cl)c3)c(C#N)cnc2cc1OCCCN1CCOCC1` the figure was 7.18.
`CCn1c(Sc2ccc(Nc3c(C#N)cnc4cc(NCCCN(CCO)CCO)c(OC)cc34)cc2Cl)nc(C)c1C` had a pIC50 of 7.59. This pIC50 is 0.41 log units higher than that of the compound before.
Same read-out and setting: the figure for `COc1cc2c(Nc3ccc(Sc4nccn4C)c(Cl)c3)c(C#N)cnc2cc1N1CCN(C)CC1` is 6.22; for `CCn1c(Sc2ccc(Nc3c(C#N)cnc4cc(NCCCN5CCOCC5)c(OC)cc34)cc2Br)nc(C)c1C` it is 7.70.
In turn, `CCn1c(Sc2ccc(Nc3c(C#N)cnc4cc(NCCCN5CCN(C)CC5)c(OC)cc34)cc2Cl)nc(C)c1C` gave a pIC50 of 7.80.
Still for that read-out and setting: the figure for `CCC(=O)C1CCN(CCCOc2cc3ncc(C#N)c(Nc4ccc(Sc5nc(C)c(C)n5CC)c(Cl)c4)c3cc2OC)CC1` is 6.87; for `CCOC(=O)NN1CCN(CCCOc2cc3ncc(C#N)c(Nc4ccc(Sc5nc(C)c(C)n5CC)c(Cl)c4)c3cc2OC)CC1` it is 7.77; for `CCC1CCCCN1CCCOc1cc2ncc(C#N)c(Nc3ccc(Sc4nc(C)c(C)n4CC)c(Cl)c3)c2cc1OC` (stereo not given) it is 7.49.
Compound `CCn1c(Sc2ccc(Nc3c(C#N)cnc4cc(OCCCN5CCOCC5)c(OC)cc34)cc2Cl)nc(C)c1C` gave a pIC50 of 7.82.
On the same count and under the same terms, with `COc1cc2c(Nc3ccc(Sc4ccccn4)c(Cl)c3)c(C#N)cnc2cc1OCCCN1CCOCC1` the figure was less than 5.00.
The compound `COc1cc2c(Nc3ccc(Sc4nccn4C)c(Cl)c3)c(C#N)cnc2cc1N(C)CCCN(C)C` showed a negative-log IC50 (pIC50) of 6.82.
For `COc1cc2c(Nc3ccc(Sc4nccn4C)c(Cl)c3)c(C#N)cnc2cc1NCCCN(C)C`, the pIC50 was 6.82.
The compound `CCNC(=O)N1CCN(CCCOc2cc3ncc(C#N)c(Nc4ccc(Sc5nc(C)c(C)n5CC)c(Cl)c4)c3cc2OC)CC1` had a pIC50 of 7.35.
`COc1cc2c(Nc3ccc(Sc4ccccc4O)cc3)c(C#N)cnc2cc1OCCCN1CCOCC1`: the pIC50 is 5.96.
On the same count and under the same terms, with `CCN1CCN(CCCOc2cc3ncc(C#N)c(Nc4ccc(Sc5nc(C)c(C)n5CC)c(Cl)c4)c3cc2OC)CC1` the figure was 8.05.
The same measure, in the same setting: the figure for `CCn1c(Sc2ccc(Nc3c(C#N)cnc4cc(NCCCc5ccccc5)c(OC)cc34)cc2Cl)nc(C)c1C` is 4.86.

System in the next data set: not listed separately
The experiment in a line: Selectivity ratio of IC50 for GST-IR to IC50 for GST-IGF1R.
As to `CCN1CCN(CCCOc2cc3ncc(C#N)c(Nc4ccc(Sc5nc(C)c(C)n5CC)c(Cl)c4)c3cc2OC)CC1`, the Ratio IC50 turned out to be 0.17.

(Values after ChEMBL document CHEMBL1139310, “Lead identification to generate 3-cyanoquinoline inhibitors of insulin-like growth factor receptor (IGF-1R) for potential use in cancer treatment” (Bioorg Med Chem Lett, 2009).)
